# Source: patent US4175125A, “Method for treating methicillin resistant staphylococcus aureus” (Eli Lilly and Company, priority 1978, dated 1979)
# Like-named read-outs stand apart in the source and are kept apart here.
# What was measured:
# Type in all cases: cell-based
# [1] = system: Staphylococcus aureus cultures; assay: Agar dilution susceptibility test, phenylthioacetyl cephalosporins vs methicillin resistant S. aureus (Example 9); conditions: for MIC: Staphylococcus aureus, read-out: MIC
# Outline: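 Agar dilution MIC, μg/mL, against Staphylococcus aureus isolates, inocula diluted to 10^3 bacteria per spot. Panel: penicillin-sensitive 3055 and penicillin-resistant H232 controls, methicillin-resistant clinical isolates, and laboratory-selected mutant 3136.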
# [2] = system: Staphylococcus aureus cultures; assay: Broth dilution MIC in trypticase soy broth, low and high NaCl (Example 10); conditions: Staphylococcus aureus, TSB, read-out: MIC
# Outline: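 MIC by broth dilution, in µg/ml, against Staphylococcus aureus cultures grown in trypticase soy broth containing either 0.5 percent or 5.0 percent NaCl. The high-salt condition serves to distinguish methicillin-resistant cultures.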
# [3] = system: Staphylococcus aureus cultures; assay: Modified Bauer-Kirby Disc Susceptibility Test (Example 11); design: zone of inhibition: dose or concentration left out as unconfirmed; conditions: for zone of inhibition: Staphylococcus aureus; for Change 37°-30°: 30 mg Disc
# Experimental: This example exemplifies the antibiotic activity of 7-[2'-(3"-chloro-4"-fluorophenylthio)acetamido]cephalosporanic acid, a water soluble compound, described in Example 8, against various Staphylococcus aureus cultures, in a modified Bauer-Kirby Disc Susceptibility Test (Bauer, A. W., W. M. M. Kirby, J. C. Sherris, and M. Turck, 1966, Amer. J. Clin. Pathol. 45:493-496). In this test the cultures were incubated at both 37° C. or 30° C. […] 16, 1968, the heterogeneity of methicilllin-resistant S. aureus is manifested by incubation at 30° C.
# [4] = culture 3130, table part marked b
# [5] = culture 3130, table part marked c
# [6] = culture 3131, table part marked b
# [7] = culture 3131, table part marked c
# [8] = culture 3134, table part marked b
# [9] = culture 3134, table part marked c
# [10] = culture 3135, table part marked b
# [11] = culture 3135, table part marked c
# [12] = culture 3136, table part marked b
# [13] = culture 3136, table part marked c
# [14] = culture 3137, table part marked b
# [15] = culture 3137, table part marked c
# [16] = culture 3138, table part marked b
# [17] = culture 3138, table part marked c
# [18] = culture 3139, table part marked b
# [19] = culture 3139, table part marked c
# [20] = culture (Seattle) 966, table part marked b
# [21] = culture (Seattle) 966, table part marked c
# [22] = culture S61, table part marked b
# [23] = culture S61, table part marked c
smiles,measurement,setting,value
"CC(=O)OCC1=C(C(=O)O)N2C(=O)C(NC(=O)CSc3cc(Cl)cc(Cl)c3)C2SC1 (centres unmarked) [Example 3, 7-(3,5-Dichlorophenylthioacetamido)-cephalosporanic acid]",MIC,"[1]; culture 3055 (control, benzylpenicillin sensitive), table part marked b",< 0.06 µg/mL
same,MIC,"[1]; culture 3055 (control, benzylpenicillin sensitive), table part marked c",< 0.06 µg/mL
same,MIC,[1]; [4],0.5 µg/mL
same,MIC,[1]; [5],1 µg/mL
same,MIC,[1]; [6],0.5 µg/mL
same,MIC,[1]; [7],2 µg/mL
same,MIC,"[1]; culture 3132, table part marked b",0.25 µg/mL
same,MIC,"[1]; culture 3132, table part marked c",0.5 µg/mL
same,MIC,"[1]; culture 3133, table part marked b",1 µg/mL
same,MIC,"[1]; culture 3133, table part marked c",1 µg/mL
same,MIC,[1]; [8],0.5 µg/mL
same,MIC,[1]; [9],1 µg/mL
same,MIC,[1]; [10],0.5 µg/mL
same,MIC,[1]; [11],1 µg/mL
same,MIC,[1]; [12],0.25 µg/mL
same,MIC,[1]; [13],2 µg/mL
same,MIC,[1]; [14],2 µg/mL
same,MIC,[1]; [15],4 µg/mL
same,MIC,[1]; [16],2 µg/mL
same,MIC,[1]; [17],1 µg/mL
same,MIC,[1]; [18],0.5 µg/mL
same,MIC,[1]; [19],1 µg/mL
same,MIC,[1]; [20],0.25 µg/mL
same,MIC,[1]; [21],0.5 µg/mL
same,MIC,"[1]; culture H232 (control, benzylpenicillin-resistant), table part marked b",< 0.06 µg/mL
same,MIC,"[1]; culture H232 (control, benzylpenicillin-resistant), table part marked c",< 0.06 µg/mL
same,MIC,"[1]; culture Kavarmark 1138501, table part marked b",0.5 µg/mL
same,MIC,"[1]; culture Kavarmark 1138501, table part marked c",2 µg/mL
same,MIC,[1]; [22],0.5 µg/mL
same,MIC,[1]; [23],2 µg/mL
same,"effectiveness in in vitro tests vs methicillin, cephalothin and cephaloridine",[1]; various cultures of methicillin-resistant Staphylococcus aureus,"substantially more effective than methicillin, cephalothin, and cephaloridine"
same,MIC,"[2]; culture 3055 (control), table part marked b",0.06 µg/mL
same,MIC,"[2]; culture 3055 (control), table part marked c",0.06 µg/mL
same,MIC,[2]; [4],< 0.5 µg/mL
same,MIC,[2]; [5],2 µg/mL
same,MIC,[2]; [6],< 0.5 µg/mL
same,MIC,[2]; [7],1 µg/mL
same,MIC,"[2]; culture 3132 (first column so headed), table part marked b",< 0.5 µg/mL
same,MIC,"[2]; culture 3132 (first column so headed), table part marked c",1 µg/mL
same,MIC,"[2]; culture 3132 (second column so headed), table part marked b",< 0.5 µg/mL
same,MIC,"[2]; culture 3132 (second column so headed), table part marked c",2 µg/mL
same,MIC,[2]; [8],1 µg/mL
same,MIC,[2]; [9],2 µg/mL
same,MIC,[2]; [10],< 0.5 µg/mL
same,MIC,[2]; [11],2 µg/mL
same,MIC,[2]; [12],0.5 µg/mL
same,MIC,[2]; [13],2 µg/mL
same,MIC,[2]; [14],2 µg/mL
same,MIC,[2]; [15],4 µg/mL
same,MIC,[2]; [16],1 µg/mL
same,MIC,[2]; [17],2 µg/mL
same,MIC,[2]; [18],2 µg/mL
same,MIC,[2]; [19],2 µg/mL
same,MIC,[2]; [20],1 µg/mL
same,MIC,[2]; [21],8 µg/mL
same,MIC,"[2]; culture H232 (control), table part marked b",0.12 µg/mL
same,MIC,"[2]; culture H232 (control), table part marked c",0.12 µg/mL
same,MIC,"[2]; culture Kavarnick 1138501, table part marked b",0.5 µg/mL
same,MIC,"[2]; culture Kavarnick 1138501, table part marked c",1 µg/mL
same,MIC,[2]; [22],0.5 µg/mL
same,MIC,[2]; [23],1 µg/mL
same,MIC,"[2]; culture S, table part marked b",0.5 µg/mL
same,MIC,"[2]; culture S, table part marked c",2 µg/mL
same,zone of inhibition,"[3]; culture 3055 (penicillin sensitive), 30°, read-out: disc susceptibility (zone) at 30°",> 35 mm
same,zone of inhibition,"[3]; culture 3055 (penicillin sensitive), 37°, read-out: disc susceptibility (zone) at 37°",> 35 mm
same,zone of inhibition,"[3]; culture 3074 (methicillin sensitive, penicillinase producing), 30°, read-out: disc susceptibility (zone) at 30°",35 mm
same,zone of inhibition,"[3]; culture 3074 (methicillin sensitive, penicillinase producing), 37°, read-out: disc susceptibility (zone) at 37°",35 mm
same,zone of inhibition,"[3]; culture 3125 (methicillin resistant), 30°, read-out: disc susceptibility (zone) at 30°",37 mm
same,zone of inhibition,"[3]; culture 3125 (methicillin resistant), 37°, read-out: disc susceptibility (zone) at 37°",34.2 mm
same,zone of inhibition,"[3]; culture 3130 (methicillin resistant), 30°, read-out: disc susceptibility (zone) at 30°",33.6 mm
same,zone of inhibition,"[3]; culture 3130 (methicillin resistant), 37°, read-out: disc susceptibility (zone) at 37°",32 mm
same,zone of inhibition,"[3]; culture 3131 (methicillin resistant), 30°, read-out: disc susceptibility (zone) at 30°",31.8 mm
same,zone of inhibition,"[3]; culture 3131 (methicillin resistant), 37°, read-out: disc susceptibility (zone) at 37°",30.6 mm
same,zone of inhibition,"[3]; culture 3132 (methicillin resistant), 30°, read-out: disc susceptibility (zone) at 30°",32.6 mm
same,zone of inhibition,"[3]; culture 3132 (methicillin resistant), 37°, read-out: disc susceptibility (zone) at 37°",31 mm
same,zone of inhibition,"[3]; culture 3133 (methicillin resistant), 30°, read-out: disc susceptibility (zone) at 30°",30.8 mm
same,zone of inhibition,"[3]; culture 3133 (methicillin resistant), 37°, read-out: disc susceptibility (zone) at 37°",29 mm
same,zone of inhibition,"[3]; culture 3134 (methicillin resistant), 30°, read-out: disc susceptibility (zone) at 30°",33 mm
same,zone of inhibition,"[3]; culture 3134 (methicillin resistant), 37°, read-out: disc susceptibility (zone) at 37°",29.8 mm
same,zone of inhibition,"[3]; culture 3135 (methicillin resistant), 30°, read-out: disc susceptibility (zone) at 30°",29.6 mm
same,zone of inhibition,"[3]; culture 3135 (methicillin resistant), 37°, read-out: disc susceptibility (zone) at 37°",28.3 mm
same,zone of inhibition,"[3]; culture 3136 (methicillin resistant), 30°, read-out: disc susceptibility (zone) at 30°",29.8 mm
same,zone of inhibition,"[3]; culture 3136 (methicillin resistant), 37°, read-out: disc susceptibility (zone) at 37°",35 mm
same,zone of inhibition,"[3]; culture 3137 (methicillin resistant), 30°, read-out: disc susceptibility (zone) at 30°",26 mm
same,zone of inhibition,"[3]; culture 3137 (methicillin resistant), 37°, read-out: disc susceptibility (zone) at 37°",26.2 mm
same,zone of inhibition,"[3]; culture 3138 (methicillin resistant), 30°, read-out: disc susceptibility (zone) at 30°",29.4 mm
same,zone of inhibition,"[3]; culture 3138 (methicillin resistant), 37°, read-out: disc susceptibility (zone) at 37°",27 mm
same,zone of inhibition,"[3]; culture 3139 (methicillin resistant), 30°, read-out: disc susceptibility (zone) at 30°",32.2 mm
same,zone of inhibition,"[3]; culture 3139 (methicillin resistant), 37°, read-out: disc susceptibility (zone) at 37°",36 mm
same,zone of inhibition,"[3]; culture 3140 (methicillin resistant), 30°, read-out: disc susceptibility (zone) at 30°",30.2 mm
same,zone of inhibition,"[3]; culture 3140 (methicillin resistant), 37°, read-out: disc susceptibility (zone) at 37°",28.8 mm
same,zone of inhibition,"[3]; culture H232 (methicillin sensitive, penicillinase producing), 30°, read-out: disc susceptibility (zone) at 30°",32.6 mm
same,zone of inhibition,"[3]; culture H232 (methicillin sensitive, penicillinase producing), 37°, read-out: disc susceptibility (zone) at 37°",34.1 mm
same,Change 37°-30°,[3]; culture 3074,0 mm
same,Change 37°-30°,[3]; culture 3125,+2.8 mm
same,Change 37°-30°,[3]; culture 3130,+1.6 mm
same,Change 37°-30°,[3]; culture 3131,+1.2 mm
same,Change 37°-30°,[3]; culture 3132,+1.6 mm
same,Change 37°-30°,[3]; culture 3133,+1.8 mm
same,Change 37°-30°,[3]; culture 3134,+3.2 mm
same,Change 37°-30°,[3]; culture 3135,+1.3 mm
same,Change 37°-30°,[3]; culture 3136,+5.2 mm
same,Change 37°-30°,[3]; culture 3137,-0.2 mm
same,Change 37°-30°,[3]; culture 3138,+2.4 mm
same,Change 37°-30°,[3]; culture 3139,-3.8 mm
same,Change 37°-30°,[3]; culture 3140,+1.4 mm
same,Change 37°-30°,[3]; culture H232,-1.5 mm
